Read-outs that look alike come from different tables or passages of the source.
How the values were obtained:
nSMase2 = target: T1, nSMase2 (Mus musculus, UniProt Q9JJY3); assay: Target engagement: nSMase activity in brain homogenates of treated mice; format: in vivo, C57BL6 mice; conditions: 100 mg/kg oral gavage, 4 hours
T1 construct: from tissue; host or cells: mouse brain (cortical homogenate)
T1 sequence (Q9JJY3 1-655): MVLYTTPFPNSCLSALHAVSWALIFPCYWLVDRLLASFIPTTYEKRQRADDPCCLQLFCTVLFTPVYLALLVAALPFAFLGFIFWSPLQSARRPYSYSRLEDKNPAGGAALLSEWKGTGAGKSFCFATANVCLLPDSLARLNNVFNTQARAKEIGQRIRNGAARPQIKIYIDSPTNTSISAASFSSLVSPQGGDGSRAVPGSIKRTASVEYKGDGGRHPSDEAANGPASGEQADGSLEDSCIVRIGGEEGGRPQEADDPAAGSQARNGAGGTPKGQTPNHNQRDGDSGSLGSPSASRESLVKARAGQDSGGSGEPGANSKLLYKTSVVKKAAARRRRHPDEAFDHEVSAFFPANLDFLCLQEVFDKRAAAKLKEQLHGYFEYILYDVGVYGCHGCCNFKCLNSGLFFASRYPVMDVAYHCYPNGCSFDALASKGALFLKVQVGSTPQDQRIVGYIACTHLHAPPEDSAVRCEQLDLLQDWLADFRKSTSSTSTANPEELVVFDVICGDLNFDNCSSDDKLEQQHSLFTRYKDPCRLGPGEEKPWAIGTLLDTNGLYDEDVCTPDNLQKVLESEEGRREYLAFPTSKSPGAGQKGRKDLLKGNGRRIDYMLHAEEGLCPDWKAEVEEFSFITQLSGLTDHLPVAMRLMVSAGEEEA
Procedure: Alternatively, mice were treated with the compounds by a parental route and after euthanization the brain is removed and homogenized using 100 mM Tris-HCl pH 7.5, 100 mM sucrose, 100 μM PMSF, 1× protease inhibitor cocktail, and diluted to 2× in reaction buffer prior to the assay and nSMase2 activity is measured. The reaction was started by adding 10 μL of the working solution (100 μM Amplex Red reagent containing 2 U/mL HRP, 0.2 U/mL choline oxidase, 8 U/mL of alkaline phosphatase, and 0.5 mM sphingomyelin) and the progression of the reaction was monitored at 540/590 nm (Ex/Em) for 2 h at 37° C. The activity of nSMase2 at 2 hrs was plotted as percentage of control using PrismGraphPad.
(§1) Brain permeability and target engagement studies were conducted in C57BL/6J mice. […] Drug level evaluation in brain and plasma samples was performed by LC-MS/MS analysis. Brain tissue was homogenized and nSMase2 activity measured as described above.

[1] = Pharmacokinetic / brain permeability study, LC-MS/MS of brain and plasma; format: in vivo, C57BL6 mice; conditions: C57BL/6J, mouse, mice, 100 mg/kg oral gavage
Procedure: as §1

[2] = system: HEK293T Tau RD P301S FRET biosensor cells; assay: D+R functional assay: tau seed transfer from P2-seeded donor cells to DiD-labeled recipient cells; format: cell-based
Procedure: The compounds disclosed herein were further evaluated in the functional assays (“D+R approach”). The assays were based on the use of two cell populations—donor cells (D) and recipient cells (R). Recipients express a specific signal upon accumulation of protein aggregates (for example, FRET signal). The D+R approach can be divided into four steps (FIG. 4A).
In step 1, donor and recipient cells were plated in separation and protein aggregation is induced in the donor cells by using tissue-derived or synthetic proteopathic seeds (“seeding”) or by chemical and/or genetic methods. In step 2, either donor cells or recipient cells were labeled with a lipophilic dye (or by other cell labeling technology) in order to be able to distinguish between donor and recipients cells after trypsinization and re-plating of the donor and recipient cells together in step 3 (R+D). Alternatively, donor and recipient cells were physically divided by a permeable support (for example, Transwell). In any scenario, the cells were connected through the media and they grow for 24-60 hours with or without addition of pre-selected compounds. Efficiency of proteopathic seed transmission from donor cells to recipient cells can be analyzed using microscopy, flow cytometry, or imaging flow cytometry. […] Treatment of the tau biosensor cells with tau seeds lead to RD aggregation, as a result, CFP and YFP molecules come into close proximity and a FRET signal can be generated in the CFP/YFP pair upon illumination. The far-red fluorescent, lipophilic carbocyanine dye, DiD, was used for labeling recipient cells. This dye allowed for distinguishing between the DiD-negative donor and the DiD positive recipient cells without interference with the CFP/YFP FRET signal. The representative images of DiD-negative FRETpositive donor cell seeded with P2-derived tau seeds), DiD-positive FRET-negative recipient cell (DiD-R), and DiD positive FRET-positive recipient cell, which were growing in the presence of P2-D (DiD-R/R+D) are presented at the FIG. 4B. […]

- inhibition (decrease) of nSMase activity in brain/cortical homogenates vs vehicle (nSMase2): 26.8%
- concentration at 4 h ([1]; brain, read-out: level in brain): 135 ± 60.9 ng/g
- concentration at 4 h ([1]; plasma, read-out: level in plasma): 8.15 ± 2.45 µg/mL
Compound: O=c1[nH]c(=S)[nH]c(-c2ccccc2)c1Cc1c(O)ccc2ccccc12 [cambinol]
- tau seed transmission from donor cells to recipient cells ([2]; D+R model, flow cytometry (FIG. 4C)): restrained tau seed transmission from the donor cells to the recipient cells in a dose-dependent manner
- EC50 ([2]; Homo sapiens, HEK-293T, 48 h, 48-hour treatment, P2-seeded donor cells, FRET-positive aggregates in recipient cells, read-out: EC50, reduction of tau transfer from donor to recipient cells (D+R assay)): ~14 µM

Reference: US20200270216A1, “COMPOSITIONS AND METHODS FOR INHIBITING N-SMASE2” (The Regents of the University of California, priority 2017, published 2020)
